Active and inactive are the calls of the source. No cut-off for these calls is given here.
Legend:
[1] = test system: MDA-MB-231; test: Antiproliferative activity against human MDA-MB-231 cells assessed as inhibition of cell proliferation incubated for 72 hrs by MTT assay; format: functional, cell-based; details: MDA-MB-231, 72 h
[2] = test system: MDA-MB-453; test: Antiproliferative activity against human MDA-MB-453 cells assessed as inhibition of cell proliferation incubated for 72 hrs by MTT assay; format: functional, cell-based; details: MDA-MB-453, 72 h
[3] = target: Focal adhesion kinase 1 (Homo sapiens, UniProt Q05397); test: Inhibition of FAK (unknown origin)
[4] = test system: MDA-MB-231; test: Induction of NO production in human MDA-MB-231 cells at 4 uM incubated for 72 hrs by DAF-FM-DA dye based flow cytometry analysis; format: functional, cell-based
[5] = test system: MDA-MB-157; test: Antiproliferative activity against human MDA-MB-157 cells assessed as inhibition of cell proliferation incubated for 72 hrs by MTT assay; format: functional, cell-based; details: MDA-MB-157, 72 h
[6] = test system: MDA-MB-231; test: Antiproliferative activity against human MDA-MB-231 cells assessed as inhibition of cell proliferation at 5 uM incubated for 72 hrs by MTT assay relative to control; format: functional
[7] = test system: MDA-MB-231; test: Induction of apoptosis in human MDA-MB-231 cells assessed as early apoptotic cells at 4 uM incubated for 72 hrs by Annexin V-FITC/PI staining based flow cytometry analysis (reference value: 2.16%); format: functional
[8] = test system: MDA-MB-231; test: Induction of apoptosis in human MDA-MB-231 cells assessed as live cells at 4 uM incubated for 72 hrs by Annexin V-FITC/PI staining based flow cytometry analysis (reference value: 97.51%); format: functional
[9] = test system: MDA-MB-231; test: Induction of apoptosis in human MDA-MB-231 cells assessed as dead cells at 4 uM incubated for 72 hrs by Annexin V-FITC/PI staining based flow cytometry analysis (reference value: 0.23%); format: functional
[10] = Cytotoxicity against human MCF-10A cells assessed as inhibition of cell proliferation incubated for 72 hrs by MTT assay; format: toxicity, cell-based
[11] = test system: MDA-MB-231; test: Induction of apoptosis in human MDA-MB-231 cells assessed as late apoptotic cells at 4 uM incubated for 72 hrs by Annexin V-FITC/PI staining based flow cytometry analysis (reference value: 0.11%); format: functional
[12] = test system: MDA-MB-231; test: Antiproliferative activity against human MDA-MB-231 cells assessed as inhibition of cell proliferation at 5 to 20 uM incubated for 72 hrs by MTT assay; format: functional, cell-based; details: dose 5-20 µM

Sequence of Focal adhesion kinase 1 (Q05397 whole entry): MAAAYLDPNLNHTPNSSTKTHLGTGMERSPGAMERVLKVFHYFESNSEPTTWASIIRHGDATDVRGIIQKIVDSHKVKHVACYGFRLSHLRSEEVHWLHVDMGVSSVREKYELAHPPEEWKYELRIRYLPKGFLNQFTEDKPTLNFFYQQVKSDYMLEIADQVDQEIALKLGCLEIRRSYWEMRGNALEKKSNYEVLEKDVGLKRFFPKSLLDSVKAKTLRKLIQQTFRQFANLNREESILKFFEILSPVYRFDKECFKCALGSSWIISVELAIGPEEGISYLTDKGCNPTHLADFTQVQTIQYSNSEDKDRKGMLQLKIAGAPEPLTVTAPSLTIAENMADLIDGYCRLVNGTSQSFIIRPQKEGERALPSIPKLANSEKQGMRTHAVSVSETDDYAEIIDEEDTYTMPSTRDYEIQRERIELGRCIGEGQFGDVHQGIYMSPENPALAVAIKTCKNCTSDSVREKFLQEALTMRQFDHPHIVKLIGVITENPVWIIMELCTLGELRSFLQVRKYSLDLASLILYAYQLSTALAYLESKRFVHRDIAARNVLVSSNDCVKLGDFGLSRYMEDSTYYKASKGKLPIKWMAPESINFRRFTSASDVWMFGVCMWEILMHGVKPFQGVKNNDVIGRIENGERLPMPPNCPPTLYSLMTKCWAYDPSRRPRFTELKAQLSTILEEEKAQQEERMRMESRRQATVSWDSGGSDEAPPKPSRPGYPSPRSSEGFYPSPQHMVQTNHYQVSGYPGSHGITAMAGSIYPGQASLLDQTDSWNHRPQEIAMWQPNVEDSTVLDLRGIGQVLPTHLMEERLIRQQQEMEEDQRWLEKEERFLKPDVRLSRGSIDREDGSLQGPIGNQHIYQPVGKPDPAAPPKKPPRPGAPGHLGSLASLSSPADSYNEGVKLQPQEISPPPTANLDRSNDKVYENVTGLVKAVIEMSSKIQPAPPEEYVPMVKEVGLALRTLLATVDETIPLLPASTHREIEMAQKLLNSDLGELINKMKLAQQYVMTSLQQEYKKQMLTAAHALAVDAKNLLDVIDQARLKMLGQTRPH

Compound	IC50 [1] [nM]	IC50 [2] [nM]	IC50 [3] [nM]	Activity [4]	IC50 [5] [nM]	inhibition at 5 µM [6] [%]	Activity [7] [%]	Activity [8] [%]	Activity [9] [%]	IC50 at 72 h [10] [nM]	Activity [11] [%]	Activity [12]
CNC(=O)c1ccccc1Nc1nc(Nc2ccc(CC(=O)OCCCCCCCOc3no[n+]([O-])c3S(=O)(=O)c3ccccc3)cc2)ncc1Cl	129	246	31.4	Active	188	> 92	–	–	–	–	–	–
CNC(=O)c1ccccc1Nc1nc(Nc2ccc(N3CCOCC3)cc2OC)ncc1Cl	1170	1220	–	–	912	–	40.78	57.79	0.11	6470	1.31	–
CNC(=O)c1ccccc1Nc1nc(Nc2ccc(CC(=O)OCC(C)COc3no[n+]([O-])c3S(=O)(=O)c3ccccc3)cc2)ncc1Cl (stereo unspecified)	225	255	66	Active	275	> 92	–	–	–	–	–	–
CC1(C)N(O)C(c2ccc(C(=O)O)cc2)=[N+]([O-])C1(C)C	–	–	–	–	–	–	–	–	–	–	–	inactive

— ChEMBL document CHEMBL5385886, “Design, synthesis and evaluation of nitric oxide releasing derivatives of 2,4-diaminopyrimidine as novel FAK inhibitors for intervention of metastatic triple-negative breast cancer” (Eur J Med Chem, 2023)
